One experiment has as its target T1, Aurora-A (Mus musculus, UniProt P97477).
T1 construct: followed by the full length protein encoding the murine Aurora-A; polyhistidine (N); made in house; host or cells: sf9 insect cells
T1 sequence (P97477 1-395): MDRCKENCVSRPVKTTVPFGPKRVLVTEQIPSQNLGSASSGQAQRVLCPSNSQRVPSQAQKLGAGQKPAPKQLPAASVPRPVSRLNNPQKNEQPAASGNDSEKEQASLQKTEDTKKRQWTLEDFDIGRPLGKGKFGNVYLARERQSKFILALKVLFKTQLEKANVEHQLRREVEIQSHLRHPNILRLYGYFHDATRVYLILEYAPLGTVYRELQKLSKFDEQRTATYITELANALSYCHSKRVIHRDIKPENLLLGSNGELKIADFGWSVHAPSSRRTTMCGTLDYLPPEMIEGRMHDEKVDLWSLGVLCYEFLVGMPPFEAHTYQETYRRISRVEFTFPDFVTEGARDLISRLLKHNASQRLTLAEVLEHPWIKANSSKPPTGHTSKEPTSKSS
In words: Aurora-A Screening Assay. The experiment is classed as biochemical, murine.

Another experiment deals with T2, c-Src kinase (Homo sapiens, UniProt P12931).
T2 construct: purchased Upstate Biotechnology, Lake Placid, N.Y
In words: c-Src Kinase Assay. The experiment is classed as biochemical. The note with it: for inhibition at 2 µM: test concentration of 2 μM, read-out: c-Src percent inhibition. The protocol: A mixture of a 10× kinase buffer (80 mM MOPS at pH 7.0, 2 mM EDTA and 100 mM Magnesium Chloride), ATP (5 μM final from a 10 mM stock), a Cdc2 peptide KVEKIGEGTYVVYK (100 μM final from a 2.5 mM stock), γ-^33P ATP (10 μCi/μL stock) and water (20 μL/well) was added to each well of a Streptavidin Flashplate.
Test compound in 100% DMSO (0.5 μL) was added to the appropriate wells. Diluted c-Src kinase (human) (Upstate Biotechnology, Lake Placid, N.Y.) (diluted in a buffer consisting of 20 mM MOPS at pH 7.0, 1 mM EDTA, β-mercaptoethanol (0.1%), Brij-35 (0.01%), glycerol (5%) and 1 mg/mL bovine serum albumin) (2.5 μL) was added to the wells to initiate the reactions. The reaction plates were incubated at 30° C. for 40 min. The reaction was terminated by the addition of a 3% phosphoric acid solution (5 μL). The reaction product (10 μL) was spotted onto a P30 filtermat and washed for 5 minutes in phosphoric acid (75 mM). The wash sequence was repeated two more times, followed with one final wash in methanol. The plates were then dried, sealed and read on the TopCount scintillation counter after adding 30 μL scintillation fluid.
Percent inhibition was derived according to the procedure described in Example 2. For those compounds without an IC50, the percent inhibition results are shown at a test concentration of 2 μM.

Another experiment relates to A375 malignant melanoma. As to the kind of experiment: Cell Proliferation Inhibition Assay (14C-thymidine incorporation), A375. The experiment is classed as cell-based. The conditions noted are these: Homo sapiens, A-375. The protocol: The ability of a test compound to inhibit unregulated cell proliferation was determined by measuring incorporation of ^14C-labelled thymidine into newly synthesized DNA within cell lines derived from carcinomas originating from several tissues. Accordingly, the anti-proliferative effect of a compound on cells with a variety of phenotypes may be determined.
Carcinoma cell lines include those such as HeLa cervical adenocarcinoma (American Type Culture Collection (ATCC), Virginia, Cat. #CCL-2), A375 malignant melanoma (ATCC CRL-1619), SK-OV-3 ovarian adenocarcinoma (ATCC HTB-77), HCT-116 colon carcinoma (CCL-247), PC-3 prostate adenocarcinoma (ATCC CRL-1435), and MDA-MB-231 (Xenogen Corp.)
The carcinoma cells were trypsinized and counted. The cells (3000-8000 count) were added to each well of a 96-well CytoStar tissue culture treated scintillating microplate (Amersham #RPNQ0160) in complete medium (100 μL) and the plate was then incubated in complete medium for 24 hrs at 37° C. in an […] atmosphere containing 5% CO2. Test compound (1 μL) in 100% DMSO was added to the plate test-wells with DMSO only added to control-wells. The plate was incubated in complete medium for a second 24 hr period at 37° C. in an atmosphere containing 5% CO2.
An aliquot of a solution of Methyl ^14C-thymidine ([…]) (NEN #NEC568 or Amersham #CFA532) and complete medium (20 uL to provide 0.2 μCi/well) was then added to each well and the plate was incubated for a third 24 hr period at 37° C. in an atmosphere containing 5% CO2. The plate contents were then discarded, the plate was washed twice with PBS (200 μL) and then PBS (200 μL) was added to each well. The plate was sealed and the degree of methyl ^14C-thymidine incorporation was quantified on a Packard Top Count.

Structures are written as SMILES. Some results are limits rather than exact numbers.

T2 sequence (P12931 whole entry): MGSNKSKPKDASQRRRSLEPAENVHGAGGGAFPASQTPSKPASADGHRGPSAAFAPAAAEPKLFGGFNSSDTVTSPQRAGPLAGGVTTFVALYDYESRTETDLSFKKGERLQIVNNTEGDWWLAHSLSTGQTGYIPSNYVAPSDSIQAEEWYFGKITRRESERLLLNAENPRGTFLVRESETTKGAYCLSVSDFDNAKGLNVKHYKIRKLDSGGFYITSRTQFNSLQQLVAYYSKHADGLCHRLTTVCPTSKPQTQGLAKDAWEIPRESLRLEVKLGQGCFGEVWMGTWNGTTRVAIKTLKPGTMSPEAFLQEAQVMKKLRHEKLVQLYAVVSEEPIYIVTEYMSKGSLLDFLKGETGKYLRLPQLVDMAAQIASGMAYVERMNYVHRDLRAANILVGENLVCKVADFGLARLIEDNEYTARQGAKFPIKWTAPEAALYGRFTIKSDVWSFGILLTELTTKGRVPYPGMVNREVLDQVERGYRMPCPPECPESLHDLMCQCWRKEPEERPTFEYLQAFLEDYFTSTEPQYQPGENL

With `N#Cc1cnc2sc(C(=O)Nc3ccc(CCN4CCOCC4)cc3)c3c2c1N(c1c(Cl)ccc2c1OCO2)C(=O)N3` [Cpd 13, 5-(5-chloro-benzo[1,3]dioxol-4-yl)-6-cyano-4-oxo-4,5-dihydro-3H-1-thia-3,5,8-triaza-acenaphthylene-2-carboxylic acid [4-(2-morpholin-4-yl-ethyl)-phenyl]-amide], the IC50 (in general, the concentration that gives 50% inhibition) on Aurora-A came out at 5.93 µM. For the same compound, at c-Src kinase, the inhibition – broadly, the change of the read-out against control, counted positive when it falls – at 2 µM worked out at 78%.

With `CN1CCC(NC(=O)c2sc3ncc(C#N)c4c3c2NC(=O)N4c2c(Cl)ccc3c2OCO3)CC1` [Cpd 10, 5-(5-chloro-benzo[1,3]dioxol-4-yl)-6-cyano-4-oxo-4,5-dihydro-3H-1-thia-3,5,8-triaza-acenaphthylene-2-carboxylic acid (1-methyl-piperidin-4-yl)-amide], the IC50 against Aurora-A is 13.3 µM; against c-Src kinase, 0.087 µM.

Turning to `N#Cc1cnc2sc(C(=O)Nc3ccc(CN4CCCCC4)cc3)c3c2c1N(c1ccc(Oc2ccccc2)cc1)C(=O)N3` [Cpd 49, 6-cyano-4-oxo-5-(4-phenoxy-phenyl)-4,5-dihydro-3H-1-thia-3,5,8-triaza-acenaphthylene-2-carboxylic acid (4-piperidin-1-ylmethyl-phenyl)-amide], the IC50 was over 100 µM against Aurora-A and 1.38 µM in the experiment with A375 malignant melanoma.

Regarding `COc1cc(NC(=O)c2sc3ncc(C#N)c4c3c2NC(=O)N4c2ccc(Oc3ccccc3)cc2)ccc1CN1CCOCC1` [Cpd 45, 6-cyano-4-oxo-5-(4-phenoxy-phenyl)-4,5-dihydro-3H-1-thia-3,5,8-triaza-acenaphthylene-2-carboxylic acid (3-methoxy-4-morpholin-4-ylmethyl-phenyl)-amide], the IC50 on Aurora-A is over 100 µM; in the experiment with A375 malignant melanoma it was over 10 µM.

On to `COc1cc(N2C(=O)Nc3c(C(=O)Nc4ccc(CN5CCOCC5)cc4)sc4ncc(C#N)c2c34)c(Cl)cc1Cl` [Cpd 5, 6-cyano-5-(2,4-dichloro-5-methoxy-phenyl)-4-oxo-4,5-dihydro-3H-1-thia-3,5,8-triaza-acenaphthylene-2-carboxylic acid (4-morpholin-4-ylmethyl-phenyl)-amide], for which the IC50 against Aurora-A is over 10 µM; against c-Src kinase, 0.355 µM.

The compound `COC1CCN(Cc2ccc(NC(=O)c3sc4ncc(C#N)c5c4c3NC(=O)N5c3c(Cl)ccc4c3OCO4)cc2)CC1` [Cpd 18, 5-(5-chloro-benzo[1,3]dioxol-4-yl)-6-cyano-4-oxo-4,5-dihydro-3H-1-thia-3,5,8-triaza-acenaphthylene-2-carboxylic acid [4-(4-methoxy-piperidin-1-ylmethyl)-phenyl]-amide] returned an IC50 against Aurora-A of over 1 µM.

For the compound `CC1CCN(Cc2ccc(NC(=O)c3sc4ncc(C#N)c5c4c3NC(=O)N5c3c(Cl)ccc4c3OCO4)cc2)CC1` [Cpd 19, 5-(5-chloro-benzo[1,3]dioxol-4-yl)-6-cyano-4-oxo-4,5-dihydro-3H-1-thia-3,5,8-triaza-acenaphthylene-2-carboxylic acid [4-(4-methyl-piperidin-1-ylmethyl)-phenyl]-amide], the inhibition at 1 µM at Aurora-A (test concentration of 1 μM, read-out: Aurora-A percent inhibition) came to 9%. Moreover, on c-Src kinase, the inhibition at 2 µM was 90%.

In the case of `N#Cc1c(N2CCOCC2)nc2sc(C(=O)Nc3ccc(CN4CCOCC4)cc3)c3c2c1N(c1c(Cl)ccc2c1OCO2)C(=O)N3` [Cpd 8, 5-(5-chloro-benzo[1,3]dioxol-4-yl)-6-cyano-7-morpholin-4-yl-4-oxo-4,5-dihydro-3H-1-thia-3,5,8-triaza-acenaphthylene-2-carboxylic acid (4-morpholin-4-ylmethyl-phenyl)-amide], at Aurora-A, it took 6.47 µM to reach half-maximal inhibition (IC50). Moreover, the inhibition at 2 µM on c-Src kinase is -21%.

`CCOC(=O)c1sc2nc(N3CCOCC3)c(C#N)c3c2c1NC(=O)N3c1c(Cl)ccc2c1OCO2` [Cpd 7, 5-(5-chloro-benzo[1,3]dioxol-4-yl)-6-cyano-7-morpholin-4-yl-4-oxo-4,5-dihydro-3H-1-thia-3,5,8-triaza-acenaphthylene-2-carboxylic acid ethyl ester]: the IC50 at Aurora-A was over 10 µM. Also, the inhibition at 2 µM on c-Src kinase is -1%.

`Cc1nc2sc(C(=O)Nc3ccc(CN4CCOCC4)cc3)c3c2c(c1C#N)N(c1c(Cl)ccc2c1OCO2)C(=O)N3` [Cpd 9, 5-(5-chloro-benzo[1,3]dioxol-4-yl)-6-cyano-7-methyl-4-oxo-4,5-dihydro-3H-1-thia-3,5,8-triaza-acenaphthylene-2-carboxylic acid (4-morpholin-4-ylmethyl-phenyl)-amide] showed an IC50 on Aurora-A of over 1 µM. In addition, the inhibition at 2 µM at c-Src kinase came out at 11%.

`COc1cc(N2C(=O)Nc3c(C(=O)Nc4ccc(CCN5CCOCC5)cc4)sc4ncc(C#N)c2c34)c(Cl)cc1Cl` [Cpd 6, 6-cyano-5-(2,4-dichloro-5-methoxy-phenyl)-4-oxo-4,5-dihydro-3H-1-thia-3,5,8-triaza-acenaphthylene-2-carboxylic acid [4-(2-morpholin-4-yl-ethyl)-phenyl]-amide]: the IC50 is over 10 µM on Aurora-A and 0.368 µM on c-Src kinase.

For the compound `N#Cc1cnc2sc(C(=O)Nc3ccc(CCN4CCCCC4)cc3)c3c2c1N(c1c(Cl)ccc2c1OCO2)C(=O)N3` [Cpd 11, 5-(5-chloro-benzo[1,3]dioxol-4-yl)-6-cyano-4-oxo-4,5-dihydro-3H-1-thia-3,5,8-triaza-acenaphthylene-2-carboxylic acid [4-(2-piperidin-1-yl-ethyl)-phenyl]-amide], the IC50 is over 1 µM at Aurora-A and 0.0712 µM on c-Src kinase.

Take `CCOC(=O)c1sc2nc(-c3cc(F)ccc3Cl)c(C#N)c3c2c1NC(=O)N3c1ccncc1` [Cpd 15, 7-(2-chloro-5-fluoro-phenyl)-6-cyano-4-oxo-5-pyridin-4-yl-4,5-dihydro-3H-1-thia-3,5,8-triaza-acenaphthylene-2-carboxylic acid ethyl ester]: the IC50 on Aurora-A is over 100 µM. The inhibition at 2 µM on c-Src kinase is -0.6%.

`CN1CCN(CCc2ccc(NC(=O)c3sc4ncc(C#N)c5c4c3NC(=O)N5c3c(Cl)ccc4c3OCO4)cc2)CC1` [Cpd 12, 5-(5-chloro-benzo[1,3]dioxol-4-yl)-6-cyano-4-oxo-4,5-dihydro-3H-1-thia-3,5,8-triaza-acenaphthylene-2-carboxylic acid {4-[2-(4-methyl-piperazin-1-yl)-ethyl]-phenyl}-amide] displayed an IC50 against Aurora-A of about 10 µM. For the same compound, the inhibition at 2 µM at c-Src kinase was 91%.

For the compound `N#Cc1cnc2sc(C(=O)Nc3ccc(CN4CCOCC4)cc3)c3c2c1N(c1c(Cl)ccc2c1OCO2)C(=O)N3` [Cpd 4, 5-(5-chloro-benzo[1,3]dioxol-4-yl)-6-cyano-4-oxo-4,5-dihydro-3H-1-thia-3,5,8-triaza-acenaphthylene-2-carboxylic acid (4-morpholin-4-ylmethyl-phenyl)-amide], the IC50 at Aurora-A stood at 10.6 µM; against c-Src kinase, 0.0574 µM.

As to `CCOC(=O)c1sc2nc(O)c(C#N)c3c2c1NC(=O)N3c1ccncc1` [Cpd 14, 6-cyano-7-hydroxy-4-oxo-5-pyridin-4-yl-4,5-dihydro-3H-1-thia-3,5,8-triaza-acenaphthylene-2-carboxylic acid ethyl ester], the IC50 against Aurora-A was over 100 µM. On c-Src kinase, the inhibition at 2 µM turned out to be 11%.

These data come from patent publication US7427625B2, “Substituted thiatriazaacenaphthylene-6-carbonitrile kinase inhibitors” (Janssen Pharmaceutica, N.V., priority 2006, dated 2008).
